# Experimental data from patent US10350255B2, “Polygonum cuspidatum extracts” (priority 2015, dated 2019).
# Where two headings read alike, the source gives them in different places.
# What was measured:
# S. aureus = experiment: Agar diffusion test (TSA, bored hole / paper disk), dark vs light; assay type: cell-based, Staphylococcus aureus; details: for zone of inhibition at 5000 µg/mL: Staphylococcus aureus, chlorhexidine control 5 mg/mL
# S. mutans = experiment: as above; assay type: cell-based, Streptococcus mutans; details: for zone of inhibition at 5000 µg/mL: chlorhexidine control 5 mg/mL
# microorganisms = experiment: Photodynamic inactivation by isolated fractions and commercial anthraquinones; assay type: cell-based; details: for Order of photodynamic inactivation of microorganisms: commercial samples of anthraquinones; for Photodynamic effect of components isolated by fractionation: isolated by fractionation of the extract
# Description: The anthraquinones, or their glycosylated derivatives, could be responsible for the photosensitizing effect of the extract. […] Commercial samples of anthraquinones produced photodynamic inactivation of microorganisms in the order emodin>physcion>rhein. In some P. cuspidatum extracts, the proportions of emodin and physcion are between 0.51-0.65% and 0.24-0.27% by weight, respectively.
# [1] = light-activated, extract 40 μg, components at their proportions found in the extract, listed as Emodin 0.001%
# [2] = light-activated, extract 40 μg, components at their proportions found in the extract
# [3] = comparative test, samples at strength as labelled, dark
# [4] = comparative test, samples at strength as labelled, light 36 J cm^-2
smiles,measurement,setting,value
Cc1cc(O)c2c(c1)C(=O)c1cc(O)cc(O)c1C2=O [Emodin],"Inhibition zone, S. aureus, Light",S. aureus; [1],8.5 mm
same,zone of inhibition at 40 µg/disc,"S. mutans; Streptococcus mutans, light or radiation study, higher concentrations: 20 μL of 2 mg mL^-1 = 40 μg, light 36 J cm^-2 (FIG. 14), read-out: Inhibition zone (photoactivity)",10 mm
same,"Inhibition zone, S. mutans, Light",S. mutans; [2],7 mm
same,"Inhibition zone, S. mutans, Light",S. mutans; [1],7.0 mm
same,Order of photodynamic inactivation of microorganisms,microorganisms,emodin>physcion>rhein
same,Photodynamic effect of components isolated by fractionation,microorganisms,greatest photodynamic effect
COc1cc(O)c2c(c1)C(=O)c1cc(C)cc(O)c1C2=O [Physcion],"Inhibition zone, S. aureus, Light","S. aureus; light-activated, extract 40 μg, components at their proportions found in the extract, listed as Physcion 0.001%",8.5 mm
same,"Inhibition zone, S. mutans, Light",S. mutans; [2],inactive
same,Order of photodynamic inactivation of microorganisms,microorganisms,emodin>physcion>rhein
"Cc1cc2nc3ccc(N(C)C)cc3[s+]c2cc1N.[Cl-] [TB 1%, Toluidine Blue 0]","Inhibition zone, S. aureus, Dark",S. aureus; [3],15 mm
same,"Inhibition zone, S. aureus, Light",S. aureus; [4],16 mm
same,"Inhibition zone, S. mutans, Dark",S. mutans; [3],15 mm
same,"Inhibition zone, S. mutans, Light",S. mutans; [4],15 mm
COc1cc(O[C@@H]2O[C@H](CO)[C@@H](O)[C@H](O)[C@H]2O)c2c(c1)C(=O)c1cc(C)cc(O)c1C2=O [anthraquinones A],Photodynamic effect of components isolated by fractionation,microorganisms,inactive
"Cc1cc(O)c2c(c1)C(=O)c1cc(O)cc(O[C@@H]3O[C@H](CO)[C@@H](O)[C@H](O)[C@H]3O)c1C2=O [anthraquinones B, Anthraglycoside B]",Photodynamic effect of components isolated by fractionation,microorganisms,inactive
"[H]/N=C(\N/C(=N/[H])NCCCCCCNC(=N)NC(=N)Nc1ccc(Cl)cc1)Nc1ccc(Cl)cc1 [chlorhexidine, Chlorhexidine Digluconate]",zone of inhibition at 5000 µg/mL,"S. aureus; dark, read-out: Inhibition zone, S. aureus, dark (reference)",18 mm
same,zone of inhibition at 5000 µg/mL,"S. aureus; light 35 J cm^-2, read-out: Inhibition zone, S. aureus, light (reference)",18 mm
same,zone of inhibition at 5000 µg/mL,"S. mutans; Streptococcus mutans, dark, read-out: Inhibition zone, S. mutans, dark (reference)",18 mm
same,zone of inhibition at 5000 µg/mL,"S. mutans; Streptococcus mutans, light 35 J cm^-2, read-out: Inhibition zone, S. mutans, light (reference)",18 mm
"Oc1ccc(C=Cc2cc(O)cc(O)c2)cc1 [resveratrol, Resveratrol]",Antimicrobial activity in the dark,"S. mutans; agar diffusion, dark (FIG. 14)",inactive
same,Antimicrobial activity with light activation,"S. mutans; agar diffusion, light 36 J cm^-2 (FIG. 14)",inactive
